Data from patent publication US20200405697A1, “Antitumor Agent” (Taiho Pharmaceutical Co., Ltd, priority 2017, published 2020).

Tests used:
[1] = tested on: MV-4-11 (Human blood cancer cell line); experiment: Effect of combination of sulfonamide compound and other antitumor agent (CellTiter-Glo, combination index): MV-4-11
Protocol: Each cell line was seeded at 90 L/well to a 96-well culture plate (Thermo Fisher Scientific, Inc.) according to the above tables. The cell-seeded plate was cultured in an incubator set to 37° C. and 500 CO2. On the day following seeding, varying concentrations of the sulfonamide compound and the other antitumor agent were added in combination to the cells. […] The serial dilutions of each compound, or DW was added at 5μL/well to the plate such that each compound and DW, or the sulfonamide compound and the other antitumor agent were combined. […] The plate after the addition was cultured at 37° C. for 3 days under 5% CO2 conditions.
Three days later, CellTiter-Glo(R) 2.0 Reagent (Promega Corporation) was added at 100 μL/well, and the amount of luminescence was measured using a plate reader EnSpire(R) Multimode Plate Reader (PerkinElmer Co., Ltd.).
An average value from 3 wells was calculated as to each drug condition from the obtained data, and cell survival rate normalized against control wells supplemented with the vehicle (DW) was calculated. A Fa (fractional inhibition) value was calculated by subtracting the cell survival rate from 1.

[2] = tested on: A549 (Human lung cancer cell line); experiment: Effect of combination of sulfonamide compound and other antitumor agent (CellTiter-Glo, combination index): A549
[3] = biological target: T1, human RNR (histidine tagged human M1 and human M2 proteins) (Homo sapiens, UniProt P23921); experiment: Human RNR inhibition effect (dCDP formation from CDP); assay type: biochemical; settings: 10 μM CDP, 37° C. for 30 minutes, read-out: RNR inhibitory activity IC50
T1 construct: made in house; host or cells: Escherichia coli
T1 sequence (P23921 1-792): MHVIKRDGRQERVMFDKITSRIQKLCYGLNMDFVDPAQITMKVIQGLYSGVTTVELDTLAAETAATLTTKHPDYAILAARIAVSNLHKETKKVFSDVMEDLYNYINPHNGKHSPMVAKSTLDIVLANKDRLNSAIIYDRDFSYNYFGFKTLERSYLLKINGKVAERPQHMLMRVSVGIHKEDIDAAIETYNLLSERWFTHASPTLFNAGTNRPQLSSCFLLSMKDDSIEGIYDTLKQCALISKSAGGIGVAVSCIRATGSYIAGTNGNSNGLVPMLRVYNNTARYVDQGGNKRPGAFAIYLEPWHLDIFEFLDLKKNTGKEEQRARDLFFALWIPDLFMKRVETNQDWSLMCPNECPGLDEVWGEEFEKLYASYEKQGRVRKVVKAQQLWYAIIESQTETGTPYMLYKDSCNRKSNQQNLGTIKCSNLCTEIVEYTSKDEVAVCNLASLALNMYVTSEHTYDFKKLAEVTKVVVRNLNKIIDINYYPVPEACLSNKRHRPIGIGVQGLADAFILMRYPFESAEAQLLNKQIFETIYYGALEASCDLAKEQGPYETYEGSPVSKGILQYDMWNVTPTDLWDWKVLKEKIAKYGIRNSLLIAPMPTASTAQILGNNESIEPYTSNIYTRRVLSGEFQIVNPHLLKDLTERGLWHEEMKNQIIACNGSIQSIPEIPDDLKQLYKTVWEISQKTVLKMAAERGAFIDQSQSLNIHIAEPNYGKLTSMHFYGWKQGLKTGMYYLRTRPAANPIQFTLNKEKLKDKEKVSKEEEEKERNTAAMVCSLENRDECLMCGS
Procedure, shortened: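 His-tagged human M1 (isoform 1) and N-terminal 59-aa-truncated M2 (isoform 2), E. coli-expressed, Ni-purified, preincubated 20 min with compound (1% DMSO). Reaction with 10 μM CDP, 2 mM ATP, 0.24 mM NADPH, 6 mM DTT, 4 mM Mg acetate, 100 mM KCl, 50 mM HEPES pH 7.2, 30 min at 37° C. dCDP formed quantified by reverse-phase HPLC after heat stop.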

[4] = Example Compound 5 247 nM + Decitabine 50.2 nM
[5] = Example Compound 5 370 nM + Decitabine 75.2 nM
[6] = Example Compound 5 555 nM + Decitabine 113 nM
[7] = Example Compound 5 833 nM + Decitabine 169 nM
[8] = Example Compound 5 1250 nM + Decitabine 254 nM
[9] = Example Compound 14 519 nM + Decitabine 50.1 nM
[10] = Example Compound 14 778 nM + Decitabine 75.2 nM
[11] = Example Compound 14 1170 nM + Decitabine 113 nM
[12] = Example Compound 14 1750 nM + Decitabine 169 nM
[13] = Example Compound 14 2630 nM + Decitabine 254 nM
[14] = Example Compound 209A 64.4 nM + Decitabine 33.4 nM
[15] = Example Compound 209A 96.6 nM + Decitabine 50.1 nM
[16] = Example Compound 209A 217 nM + Decitabine 113 nM
[17] = Example Compound 209A 326 nM + Decitabine 169 nM
[18] = Example Compound 235A 90.1 nM + Decitabine 33.4 nM
[19] = Example Compound 235A 135 nM + Decitabine 50.1 nM
[20] = Example Compound 235A 304 nM + Decitabine 113 nM
[21] = Example Compound 235A 456 nM + Decitabine 169 nM
[22] = Example Compound 235A 684 nM + Decitabine 254 nM
[23] = Example Compound 14 1970 nM + Decitabine 1340 nM
[24] = Example Compound 14 2950 nM + Decitabine 2000 nM
[25] = Example Compound 14 4420 nM + Decitabine 3000 nM
[26] = Example Compound 209A 635 nM + Decitabine 2000 nM
[27] = Example Compound 235A 520 nM + Decitabine 1340 nM
[28] = Example Compound 235A 780 nM + Decitabine 2020 nM
[29] = Example Compound 235A 1170 nM + Decitabine 3020 nM
[30] = Example Compound 5 164 nM + Guadecitabine 11.8 nM
[31] = Example Compound 5 247 nM + Guadecitabine 17.8 nM
[32] = Example Compound 5 370 nM + Guadecitabine 26.7 nM
[33] = Example Compound 5 555 nM + Guadecitabine 40.1 nM
[34] = Example Compound 5 833 nM + Guadecitabine 60.2 nM
[35] = Example Compound 5 1250 nM + Guadecitabine 90.3 nM
[36] = Example Compound 14 519 nM + Guadecitabine 17.8 nM
[37] = Example Compound 14 778 nM + Guadecitabine 26.7 nM
[38] = Example Compound 14 1170 nM + Guadecitabine 40.2 nM
[39] = Example Compound 14 1750 nM + Guadecitabine 60.1 nM
[40] = Example Compound 14 2630 nM + Guadecitabine 90.3 nM
[41] = Example Compound 209A 96.6 nM + Guadecitabine 17.8 nM
[42] = Example Compound 209A 217 nM + Guadecitabine 40.0 nM
[43] = Example Compound 209A 326 nM + Guadecitabine 60.1 nM
[44] = Example Compound 235A 90.1 nM + Guadecitabine 11.9 nM
[45] = Example Compound 235A 135 nM + Guadecitabine 17.8 nM
[46] = Example Compound 235A 304 nM + Guadecitabine 40.1 nM
[47] = Example Compound 235A 456 nM + Guadecitabine 60.1 nM
[48] = Example Compound 235A 684 nM + Guadecitabine […]
[49] = Example Compound 14 1310 nM + Guadecitabine 326 nM
[50] = Example Compound 14 1970 nM + Guadecitabine 490 nM
[51] = Example Compound 14 2950 nM + Guadecitabine 734 nM
[52] = Example Compound 14 4420 nM + Guadecitabine 1100 nM
[53] = Example Compound 209A 635 nM + Guadecitabine 734 nM
[54] = Example Compound 235A 520 nM + Guadecitabine 469 nM
[55] = Example Compound 235A 780 nM + Guadecitabine 704 nM
[56] = Example Compound 235A 1170 nM + Guadecitabine 1060 nM

## Nc1ncn([C@H]2C[C@H](O)[C@@H](CO)O2)c(=O)n1 [Decitabine, decitabine]
[1]; [4]
  CI value: 0.685
  Fa value: 0.3382
[1]; [5]
  CI value: 0.725
  Fa value: 0.4753
[1]; [6]
  CI value: 0.709
  Fa value: 0.6924
[1]; [7]
  CI value: 0.693
  Fa value: 0.8888
[1]; [8]
  CI value: 0.608
  Fa value: 0.9844
[1]; [9]
  CI value: 0.707
  Fa value: 0.3361
[1]; [10]
  CI value: 0.872
  Fa value: 0.4089
[1]; [11]
  CI value: 0.849
  Fa value: 0.5994
[1]; [12]
  CI value: 0.717
  Fa value: 0.8350
[1]; [13]
  CI value: 0.599
  Fa value: 0.9588
[1]; [14]
  CI value: 0.793
  Fa value: 0.2551
[1]; [15]
  CI value: 0.839
  Fa value: 0.3812
[1]; [16]
  CI value: 0.715
  Fa value: 0.8536
[1]; [17]
  CI value: 0.627
  Fa value: 0.9689
[1]; [18]
  CI value: 0.725
  Fa value: 0.2126
[1]; [19]
  CI value: 0.757
  Fa value: 0.3356
[1]; [20]
  CI value: 0.760
  Fa value: 0.7532
[1]; [21]
  CI value: 0.687
  Fa value: 0.9339
[1]; [22]
  CI value: 0.535
  Fa value: 0.9935
[2]; [23]
  CI value: 0.542
  Fa value: 0.3867
[2]; [24]
  CI value: 0.577
  Fa value: 0.5183
[2]; [25]
  CI value: 0.602
  Fa value: 0.6737
[2]; [26]
  CI value: 0.569
  Fa value: 0.5615
[2]; [27]
  CI value: 0.570
  Fa value: 0.2897
[2]; [28]
  CI value: 0.567
  Fa value: 0.4383
[2]; [29]
  CI value: 0.650
  Fa value: 0.5537

## Nc1ncn([C@H]2C[C@H](OP(=O)(O)OC[C@H]3O[C@@H](n4cnc5c(=O)[nH]c(N)nc54)C[C@@H]3O)[C@@H](CO)O2)c(=O)n1 [Guadecitabine, guadecitabine]
[1]; [30]
  CI value: 0.640
  Fa value: 0.2498
[1]; [31]
  CI value: 0.683
  Fa value: 0.3527
[1]; [32]
  CI value: 0.727
  Fa value: 0.4905
[1]; [33]
  CI value: 0.690
  Fa value: 0.7205
[1]; [34]
  CI value: 0.673
  Fa value: 0.9023
[1]; [35]
  CI value: 0.557
  Fa value: 0.9892
[1]; [36]
  CI value: 0.767
  Fa value: 0.3318
[1]; [37]
  CI value: 0.844
  Fa value: 0.4449
[1]; [38]
  CI value: 0.797
  Fa value: 0.6448
[1]; [39]
  CI value: 0.668
  Fa value: 0.8620
[1]; [40]
  CI value: 0.545
  Fa value: 0.9686
[1]; [41]
  CI value: 0.766
  Fa value: 0.4376
[1]; [42]
  CI value: 0.753
  Fa value: 0.8301
[1]; [43]
  CI value: 0.631
  Fa value: 0.9675
[1]; [44]
  CI value: 0.633
  Fa value: 0.2567
[1]; [45]
  CI value: 0.638
  Fa value: 0.4131
[1]; [46]
  CI value: 0.689
  Fa value: 0.7974
[1]; [47]
  CI value: 0.617
  Fa value: 0.9524
[1]; [48]
  CI value: 0.544
  Fa value: 0.9930
[2]; [49]
  CI value: 0.561
  Fa value: 0.2913
[2]; [50]
  CI value: 0.503
  Fa value: 0.4560
[2]; [51]
  CI value: 0.582
  Fa value: 0.5553
[2]; [52]
  CI value: 0.620
  Fa value: 0.6875
[2]; [53]
  CI value: 0.522
  Fa value: 0.6179
[2]; [54]
  CI value: 0.568
  Fa value: 0.2878
[2]; [55]
  CI value: 0.583
  Fa value: 0.4237
[2]; [56]
  CI value: 0.670
  Fa value: 0.5377

## Cc1ccc(F)c([C@@H](C)[C@H](NS(=O)(=O)c2ccc3c(c2)C(C)(O)CCC3)c2n[nH]c(=O)o2)c1C (stereo partly drawn) [Example 194, N-((1S,2R)-2-(6-fluoro-2,3-dimethylphenyl)-1-(5-oxo-4,5-dihydro-1,3,4-oxadiazol-2-yl)propyl)-8-hydroxy-8-methyl-5,6,7,8-tetrahydronaphthalene-2-sulfonamide]
[3]
  IC50: 360 nM

## CCN1CCOc2c(S(=O)(=O)N[C@H](c3n[nH]c(=O)o3)[C@H](C)c3c(F)ccc(C)c3C)ccc(Cl)c21 [Example 94, 5-chloro-4-ethyl-N-((1S,2R)-2-(6-fluoro-2,3-dimethylphenyl)-1-(5-oxo4,5-dihydro-1,3,4-oxadiazol-2-yl)propyl)-3,4-dihydro-2H-benzo[b][1,4]oxazine-8-sulfonamide]
[3]
  IC50: 110 nM

## Cc1c(Br)ccc(F)c1[C@@H](C)[C@H](NS(=O)(=O)c1ccc(Cl)c2c1OCCC2O)c1n[nH]c(=O)o1 (single isomer, unassigned) [Example 243B]
[3]
  IC50: 100 nM

## Cc1ccc(F)c([C@@H](C)[C@H](NS(=O)(=O)c2ccc(F)c3c2OCCC3O)c2n[nH]c(=O)o2)c1C (single isomer, unassigned) [Example 230B]
[3]
  IC50: 50 nM
